Blank lines part the entries; values can stand above or below the compound they belong to.
Tests used:
[1] = biological target: T1, rat TRPM8 channel (rTRPM8) (Rattus norvegicus, UniProt Q8R455); test: Ca2+ microfluorimetry, menthol-induced Ca2+ entry in HEK293 cells overexpressing rTRPM8; assay type: cell-based; conditions: for IC50: rTRPM8, HEK293, activation by 100 µM menthol
T1 construct: expressed in transfected cells
Protocol: The diastereomeric 1,4,4-trisubstitutes β-lactams were evaluated as modulators of the TRPM8 channel by calcium microfluorimetry assays. These assays use a Human Embryonic Kidney 293 (HEK293) cell line that stably overexpressed rat TRPM8 channel (rTRPM8). […] Three separated experiments in triplicate were used.
The initial biological evaluation of this series of 1,3,4,4-tetrasubstituted β-lactams was performed by calcium microfluorimetry assays using the indicated HEK293 cell line overexpressing rTRPM8 channels.
(§1) Calcium fluorometry, Patch-Clamp assays and in vivo experiments were performed using the methodology previously described for TRPM8 [35] or TRPM3 [61]. In the Patch -Clamp experiments, the intracellular pipette solution contained (in mM) 140 KCl, 5 EGTA, and 10 mM HEPES, adjusted to pH 7.2 with KOH, and the extracellular solution contained (in mM) 140 NaCl, 2 CaCl2, 1 MgCl2, 10 D-glucose and 10 HEPES, adjusted to pH 7.4 with NaOH. Selectivity against TRPV1, TRPV3, TRPA1 and ASIC3 was subcontracted to Eurofins-CEREP or Eurofins-PANLABS (see ref. [35] for more details).

hTRPM8 = biological target: T2, hTRPM8 (Homo sapiens, UniProt Q7Z2W7); test: Ca2+ microfluorimetry in HEK293 cells expressing human TRPM8; assay type: cell-based; conditions: activation by 100 µM menthol; read-out: Ca^2+ Microfluorimetry Assays hTRPM8 IC50
T2 construct: expressed in transfected cells; host or cells: HEK293
T2 sequence (Q7Z2W7 whole entry): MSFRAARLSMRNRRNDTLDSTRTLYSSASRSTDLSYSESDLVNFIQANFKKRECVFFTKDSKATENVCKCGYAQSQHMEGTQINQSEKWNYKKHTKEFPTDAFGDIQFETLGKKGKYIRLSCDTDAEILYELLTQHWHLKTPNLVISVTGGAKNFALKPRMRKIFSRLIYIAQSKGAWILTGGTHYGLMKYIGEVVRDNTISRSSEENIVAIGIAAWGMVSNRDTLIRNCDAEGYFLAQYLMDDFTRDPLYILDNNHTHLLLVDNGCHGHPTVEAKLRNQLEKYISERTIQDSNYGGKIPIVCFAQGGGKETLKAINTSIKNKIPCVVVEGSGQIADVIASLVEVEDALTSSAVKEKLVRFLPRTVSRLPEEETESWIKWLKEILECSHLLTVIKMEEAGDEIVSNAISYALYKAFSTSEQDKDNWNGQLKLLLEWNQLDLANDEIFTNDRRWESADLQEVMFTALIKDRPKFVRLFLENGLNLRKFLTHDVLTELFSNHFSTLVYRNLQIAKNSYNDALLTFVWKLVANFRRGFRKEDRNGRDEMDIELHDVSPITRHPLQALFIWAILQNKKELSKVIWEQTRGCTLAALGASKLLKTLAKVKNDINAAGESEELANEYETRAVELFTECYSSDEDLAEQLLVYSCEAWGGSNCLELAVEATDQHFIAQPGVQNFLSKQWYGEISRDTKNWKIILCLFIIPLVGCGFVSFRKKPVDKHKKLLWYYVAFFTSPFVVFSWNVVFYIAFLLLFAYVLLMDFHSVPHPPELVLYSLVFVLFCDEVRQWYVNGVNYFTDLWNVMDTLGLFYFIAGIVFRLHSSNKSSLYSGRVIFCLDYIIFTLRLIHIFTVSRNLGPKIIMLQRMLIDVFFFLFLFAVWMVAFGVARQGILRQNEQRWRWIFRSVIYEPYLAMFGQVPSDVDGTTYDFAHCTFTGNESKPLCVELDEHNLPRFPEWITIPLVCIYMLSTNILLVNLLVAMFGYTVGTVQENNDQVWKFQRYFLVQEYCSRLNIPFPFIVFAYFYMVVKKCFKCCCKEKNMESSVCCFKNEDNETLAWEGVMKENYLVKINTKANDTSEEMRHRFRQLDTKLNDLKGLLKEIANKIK
Protocol: To further characterize this family of compounds, calcium microfluorimetry assays were conducted using the HEK293 cell line, which expresses the human isoform of the TRPM8 channel. Amide derivatives 34 and 35 were selected, and their outcomes were compared with those of the model compound 1 (Table 4). […] This behavior is not particular of these β-lactams, but it is similar to those observed for other TRPM8 antagonists.
as §1

rTRPM8 = biological target: T3, rTRPM8 (Rattus norvegicus, UniProt Q8R455); test: Patch-Clamp electrophysiology on single HEK293 cells expressing rat TRPM8; assay type: cell-based; conditions: activation by 100 µM menthol; holding voltage −60 mV
T3 construct: expressed in transfected cells
T3 sequence (Q8R455 whole entry): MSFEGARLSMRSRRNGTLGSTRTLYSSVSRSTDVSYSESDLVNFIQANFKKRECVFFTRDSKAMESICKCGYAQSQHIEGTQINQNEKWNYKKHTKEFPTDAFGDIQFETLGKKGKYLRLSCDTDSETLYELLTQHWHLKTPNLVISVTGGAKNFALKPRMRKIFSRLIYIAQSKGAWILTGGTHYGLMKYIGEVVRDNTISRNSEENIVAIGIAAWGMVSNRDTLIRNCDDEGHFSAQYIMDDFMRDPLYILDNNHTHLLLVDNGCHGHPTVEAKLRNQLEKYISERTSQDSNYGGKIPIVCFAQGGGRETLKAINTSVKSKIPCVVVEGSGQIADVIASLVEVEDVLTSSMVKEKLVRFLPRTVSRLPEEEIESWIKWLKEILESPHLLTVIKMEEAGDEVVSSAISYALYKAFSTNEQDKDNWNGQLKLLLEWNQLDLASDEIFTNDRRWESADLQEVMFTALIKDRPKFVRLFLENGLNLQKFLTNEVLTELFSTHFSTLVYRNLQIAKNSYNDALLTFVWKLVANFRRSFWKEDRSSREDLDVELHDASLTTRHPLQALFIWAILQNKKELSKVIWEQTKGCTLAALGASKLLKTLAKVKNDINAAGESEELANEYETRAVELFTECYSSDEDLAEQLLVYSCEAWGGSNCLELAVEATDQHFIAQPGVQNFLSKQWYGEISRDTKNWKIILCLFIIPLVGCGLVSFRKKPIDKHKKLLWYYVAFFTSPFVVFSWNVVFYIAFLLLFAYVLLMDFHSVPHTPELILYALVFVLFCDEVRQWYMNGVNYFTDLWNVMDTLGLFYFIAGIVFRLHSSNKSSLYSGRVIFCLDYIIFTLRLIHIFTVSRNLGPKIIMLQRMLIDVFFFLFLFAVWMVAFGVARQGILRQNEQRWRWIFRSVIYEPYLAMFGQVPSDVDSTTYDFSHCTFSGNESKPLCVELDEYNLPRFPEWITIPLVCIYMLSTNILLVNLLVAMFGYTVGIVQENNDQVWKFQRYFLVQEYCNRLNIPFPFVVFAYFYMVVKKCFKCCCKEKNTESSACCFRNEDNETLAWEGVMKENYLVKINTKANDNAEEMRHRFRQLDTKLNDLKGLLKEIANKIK
Excerpt: A recent research study using Patch-Clamp, among other techniques, established that menthol occupies a cavity within the TRPM8 S1–S4 transmembrane helix, with the OH group forming an H-bond with the δ-NH of R842 residue, and Van der Waals interactions among the methyl groups of the ^iPr moiety and residues I846 and L843 [41].
This is evident by a negligible current at negative potentials and a linear intensification of the ohmic current at positive voltages. When applying compound 34 at a concentration of […], a noticeable reduction in menthol-induced activity at depolarizing voltages was observed (indicated by the red line) compared to menthol alone. Dose–response relationships for both tested compounds were established through triplicate experiments at various concentrations, applying a holding voltage of −60 mV (as shown in Figure 2B).
as §1
Figure 2 Compound 34 blocks TRPM8-mediated responses evoked by menthol in rTRPM8-expressing HEK293 cells. (A) IV curves obtained after exposure to vehicle solution (green trace), 100 µM menthol (blue trace) and 100 µM menthol + 10 µM 34 (red trace). Peak current data were expressed as pA/pF (to allow comparison among different size cells). Each point is the mean ± SEM of n = 15. (B) Concentration/response curves for rTRPM8 current blockade by 34 at a holding voltage of −60 mV. […]

hTRPM3 = hTRPM3 (Homo sapiens, UniProt Q9HCF6); test: TRPM3 channel Ca2+ microfluorimetry (pregnenolone sulfate 50 µM); assay type: cell-based; conditions: 10 µM; read-out: degree of inhibition in the Ca^2+ influx induced by pregnenolone sulfate (TRPM3)
Chain of hTRPM3 (Q9HCF6 whole entry): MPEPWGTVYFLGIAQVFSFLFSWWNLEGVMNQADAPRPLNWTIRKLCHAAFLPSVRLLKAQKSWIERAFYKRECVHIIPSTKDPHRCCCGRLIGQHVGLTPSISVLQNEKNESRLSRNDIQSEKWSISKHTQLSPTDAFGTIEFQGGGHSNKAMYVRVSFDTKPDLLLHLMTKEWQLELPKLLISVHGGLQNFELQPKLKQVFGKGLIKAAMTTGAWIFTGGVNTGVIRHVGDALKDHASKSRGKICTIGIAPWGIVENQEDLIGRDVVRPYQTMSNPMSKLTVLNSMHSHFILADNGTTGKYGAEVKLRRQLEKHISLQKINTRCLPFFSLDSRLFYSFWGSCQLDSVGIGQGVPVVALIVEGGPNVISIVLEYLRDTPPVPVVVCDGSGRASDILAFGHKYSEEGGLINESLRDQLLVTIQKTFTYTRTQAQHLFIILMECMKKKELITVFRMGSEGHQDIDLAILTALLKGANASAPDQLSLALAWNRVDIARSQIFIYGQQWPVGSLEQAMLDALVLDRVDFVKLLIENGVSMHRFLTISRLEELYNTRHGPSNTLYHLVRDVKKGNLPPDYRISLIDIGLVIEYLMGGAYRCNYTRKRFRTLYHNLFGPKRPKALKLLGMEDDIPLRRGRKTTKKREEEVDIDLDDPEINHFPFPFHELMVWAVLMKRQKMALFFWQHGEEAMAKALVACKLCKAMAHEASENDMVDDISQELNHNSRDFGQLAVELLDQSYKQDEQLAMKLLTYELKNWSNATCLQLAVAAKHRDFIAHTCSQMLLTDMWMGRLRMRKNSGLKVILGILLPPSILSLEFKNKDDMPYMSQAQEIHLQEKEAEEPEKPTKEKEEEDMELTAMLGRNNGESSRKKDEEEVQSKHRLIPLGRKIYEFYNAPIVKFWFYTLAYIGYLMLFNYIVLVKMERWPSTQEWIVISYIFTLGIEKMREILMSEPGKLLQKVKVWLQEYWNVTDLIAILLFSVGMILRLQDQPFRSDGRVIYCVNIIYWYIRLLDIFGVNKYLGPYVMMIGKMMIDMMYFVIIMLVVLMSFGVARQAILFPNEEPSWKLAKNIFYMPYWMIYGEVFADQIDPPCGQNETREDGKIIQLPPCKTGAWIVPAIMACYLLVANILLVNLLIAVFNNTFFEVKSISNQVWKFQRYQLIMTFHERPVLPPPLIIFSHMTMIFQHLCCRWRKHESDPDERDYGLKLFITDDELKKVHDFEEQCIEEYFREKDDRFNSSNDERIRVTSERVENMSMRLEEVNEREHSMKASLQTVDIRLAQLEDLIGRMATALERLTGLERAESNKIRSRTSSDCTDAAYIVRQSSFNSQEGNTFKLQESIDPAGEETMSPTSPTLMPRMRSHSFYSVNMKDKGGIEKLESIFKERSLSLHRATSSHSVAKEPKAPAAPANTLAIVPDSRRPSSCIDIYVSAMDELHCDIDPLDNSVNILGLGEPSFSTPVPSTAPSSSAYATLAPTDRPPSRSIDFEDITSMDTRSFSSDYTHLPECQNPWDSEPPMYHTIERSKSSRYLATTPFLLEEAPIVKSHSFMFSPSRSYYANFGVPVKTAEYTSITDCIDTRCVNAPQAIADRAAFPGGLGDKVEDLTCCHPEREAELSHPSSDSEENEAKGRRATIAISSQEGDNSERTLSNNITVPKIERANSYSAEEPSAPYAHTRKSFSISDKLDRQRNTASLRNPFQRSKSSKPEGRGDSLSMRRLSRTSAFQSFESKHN
Protocol: First, some TRP channels that play a role in temperature integration and nociception were selected, including hTRPV1, hTRPV3, hTRPA1 and TRPM3. Additionally, the evaluation encompassed the hASIC3 channel with widespread distribution within the peripheral nervous system and contributions to the excitability of primary sensory neurons. In each instance, the compound was subjected to evaluation at a consistent concentration of 10 µM.
as §1

[2] = tested on: dorsal root ganglia (DRG) sensory neurons; test: Resting membrane potential of DRG sensory neurons (current clamp Patch-Clamp); assay type: cell-based; conditions: 10 µM
Protocol: We also investigated the effect of β-lactams derivatives on the resting membrane potential (RMP) of dorsal root ganglia (DRG) sensory neurons.
(A) Representative recordings of resting membrane potential measured under current clamp configuration. The traces show the action potentials (APs) firings from DRG neurons elicited by 100 μM menthol (left trace) or in the presence of vehicle (0.5% DMSO) or the β-lactams derivatives ([…]). (B) Changes in the Vm in the absence and in the presence of 10 μM of the β-lactams derivatives. Data were analyzed by one-way ANOVA followed by Bonferroni post hoc test for multiple comparisons (ns = no significance, **** p < = 0.0001) and given as mean ± SEM; n ≥ 40 cells from 4 cultures.

[3] = tested on: oxaliplatin-induced cold hypersensitivity; test: Oxaliplatin-induced cold allodynia in mice (acetone drop test); assay type: in vivo
Excerpt: It is established that treatments with the chemotherapeutic drug oxaliplatin (OXA) induce painful peripheral neuropathy, known as CIPN, which becomes more pronounced in cold conditions. The TRPM8 channel has been implicated in mouse models of CIPN pain induced by OXA [19, 51]. In fact, the OXA-induced peripheral neuropathy mouse model is being used for the pharmacological characterization of TRPM8 antagonists. For this peripheral neuropathy assay, mice were subcutaneously (s.c.) injected with OXA at a dose of 6 mg/kg dose on days 1, 3 and 5 to male mice to induce increased sensitivity to cold, which can be monitored through the acetone drop test.
Consequently, compounds 34 and 35 have been tested for their ability to alleviate OXA-induced cold hypersensitivity after intraplantar administration (i.pl., 3, 1 and 0.1 μg). […] This effect was observed 15 min post-administration and sustained up to 60 min.
as §1
Figure 4 Effects of compounds 34 (A) and 35 (B) on the oxaliplatin (OXP)-induced cold hypersensitivity (drop acetone test). Peripheral neuropathy was induced in male mice by injecting OXA (6 mg/kg, s.c.) on days 1, 3 and 5. Control animals were treated with vehicle. Compounds 34 (A) and 35 (B) (3 µg/i.pl., 1 µg/i.pl. and 0.1 µg/i.pl.) were administered to the OXP-treated animals, and the time-course of cold hypersensitivity was measured. Data are given ± SEM (n = 5). Statistical analysis, comparing with oxaliplatin-treated mice, was performed by two-way ANOVA followed by post hoc Bonferroni test by multiple comparisons: * […], ** p < 0.01, **** p < 0.0001.

T1 sequence (Q8R455 whole entry): as the sequence (Q8R455 whole entry) above

SMILES: O=C1CC(Cc2ccccc2)(C(=O)NCc2ccc(Cl)c(Cl)c2)N1C[C@H](Cc1ccccc1)N(Cc1ccccc1)Cc1ccccc1 (stereo partly shown) [6a,b]
antagonist activity ([1]; relative to benzylamide 5a,b): notable reduction in antagonist activity

SMILES: O=C1CC(Cc2ccccc2)(C(=O)Nc2cccnc2)N1C[C@H](Cc1ccccc1)N(Cc1ccccc1)Cc1ccccc1 (stereo partly shown) [7a,b]
IC50 ([1]; Table 1): 11.6 ± 1.3 µM

SMILES: C[C@@H]1C(=O)N(C[C@H](Cc2ccccc2)N(Cc2ccccc2)Cc2ccccc2)[C@]1(Cc1ccccc1)C(=O)NCc1ccccc1 [Compound 35, 4S-Benzyl-4-[N-(benzyl)-carbamoyl]-3S-methyl-1-[(2′S-dibenzylamino-3′-phenyl)prop-1′-yl]-2-oxoazetidine]
IC50 (hTRPM8): 3.33 ± 1.28 µM
IC50 ([1]; Table 3): 0.49 ± 1.27 µM
IC50 (rTRPM8): 0.48 ± 1.33 µM
inhibition at 10 µM (hTRPM3): 4.1 ± 10.8%
effect on resting membrane potential (RMP) [2]: did not alter the RMP
time the antiallodynic effect is sustained ([3]; i.pl., observed from 15 min post-administration): up to 60 min
effect on cold-induced paw licking ([3]; male mice, OXA 6 mg/kg s.c. days 1, 3, 5, i.pl. 3, 1 and 0.1 μg): dose-dependent and significant reduction

SMILES: C[C@@H]1C(=O)N(C[C@H](Cc2ccccc2)NCc2ccc(-c3ccccc3)cc2)[C@]1(Cc1ccccc1)C(=O)OC(C)(C)C [Compound 41, 4S-Benzyl-4-terc-butoxycarbonyl-3S-methyl-1-[(2’S-N-(4′′-biphenyl)methylamino-3’-phenyl)prop-1′-yl]-2-oxoazetidine]
IC50 ([1]; Table 3): 9.26 ± 1.41 µM

SMILES: O=C1C[C@@]2(Cc3ccccc3)C(=O)N[C@@H](Cc3ccccc3)CN12 [Compound 11a, (3S,6S)-3,6-dibenzyl-1,4-diazabicyclo[4.2.0]octane-5,8-dione]
inhibition at 50 µM ([1]; HEK293, at 50 μM): < 50%

SMILES: CC(C)CNC(=O)[C@]1(Cc2ccccc2)[C@H](C)C(=O)N1C[C@H](Cc1ccccc1)NCc1ccc2ccccc2c1 [Compound 45, 4S-Benzyl-4-[N-(iso-butyl)-carbamoyl]-3S-methyl-1-[(2′S-(2′′-naphtylmethyl)amino-3′-phenyl)prop-1′-yl]-2-oxoazetidine]
IC50 ([1]; Table 3): 3.56 ± 1.4 µM

SMILES: O=C1CC(Cc2ccccc2)(C(=O)NCc2ccccn2)N1C[C@H](Cc1ccccc1)N(Cc1ccccc1)Cc1ccccc1 (stereo partly shown) [8a,b]
IC50 ([1]; Table 1): 1.99 ± 1.26 µM

SMILES: O=C1CC(Cc2ccccc2)(C(=O)NCc2ccccc2)N1C[C@H](Cc1ccccc1)N(Cc1ccccc1)Cc1ccccc1 (stereo partly shown) [5a,b]
IC50 ([1]; Table 1): 0.71 ± 1.27 µM

SMILES: CC(C)CNC(=O)[C@]1(Cc2ccccc2)[C@H](C)C(=O)N1C[C@H](Cc1ccccc1)NCc1cccc(F)c1 [Compound 43, 4S-Benzyl-4-[N-(iso-butyl)carbamoyl]-3S-methyl-1-[(2′S-(3′′-fluorobenzyl)amino-3′-phenyl)prop-1′-yl]-2-oxoazetidine]
IC50 ([1]; Table 3): 4.03 ± 1.35 µM

SMILES: C[C@@H]1C(=O)N(C[C@H](Cc2ccccc2)NCc2ccccc2)[C@]1(Cc1ccccc1)C(=O)OC(C)(C)C [Compound 37, 4S-Benzyl-4-(terc-butoxy)carbonyl-3S-methyl-1-[(2’S-N-benzylamino-3’-phenyl)prop-1′-yl]-2-oxoazetidine]
IC50 ([1]; Table 3): 3.06 ± 1.25 µM

SMILES: C[C@@H]1C(=O)N(C[C@H](Cc2ccccc2)NCc2cccc(-c3ccccc3)c2)[C@]1(Cc1ccccc1)C(=O)OC(C)(C)C [Compound 40, 4S-Benzyl-4-(terc-butoxy)carbonyl-3S-methyl-1-[(2’S-N-(3′′-biphenyl)methylamino-3’-phenyl)prop-1′-yl]-2-oxoazetidine]
IC50 ([1]; Table 3): 6.36 ± 1.41 µM

The next lines start with the values.

IC50 ([1]; Table 1): 0.15 µM
SMILES: COC(=O)C1(Cc2ccccc2)CC(=O)N1C[C@H](Cc1ccccc1)N(Cc1ccccc1)Cc1ccccc1 (stereo partly shown) [2a,b]

IC50 ([1]; Table 1): 10.7 ± 1.38 µM
SMILES: O=C1CC(Cc2ccccc2)(C(=O)NCc2cccnc2)N1C[C@H](Cc1ccccc1)N(Cc1ccccc1)Cc1ccccc1 (stereo partly shown) [9a,b]

IC50 ([1]; Table 3): 2.19 ± 1.36 µM
SMILES: CC(C)CNC(=O)[C@]1(Cc2ccccc2)[C@H](C)C(=O)N1C[C@H](Cc1ccccc1)NCc1cccc(-c2ccccc2)c1 [Compound 42, 4S-Benzyl-4-[N-(iso-butyl)-carbamoyl]-3S-methyl-1-[(2′S-(3′′-phenylbencil)amino-3′-phenyl)prop-1′-yl]-2-oxoazetidine]

IC50 ([1]; Table 1): 0.71 ± 1.2 µM
SMILES: CC(C)CNC(=O)C1(Cc2ccccc2)CC(=O)N1C[C@H](Cc1ccccc1)N(Cc1ccccc1)Cc1ccccc1 (stereo partly shown) [4a,b]

IC50 ([1]; Table 3): 3.27 ± 1.31 µM
SMILES: CC(C)CNC(=O)[C@]1(Cc2ccccc2)[C@H](C)C(=O)N1C[C@H](Cc1ccccc1)NCc1cccc(Br)c1 [Compound 44, 4S-Benzyl-4-[N-(iso-butyl)carbamoyl]-3S-methyl-1-[(2′S-(3′′-bromobenzyl)amino-3′-phenyl)prop-1′-yl]-2-oxoazetidine]

Source: article PMC10573892, “β-Lactam TRPM8 Antagonists Derived from Phe-Phenylalaninol Conjugates: Structure–Activity Relationships and Antiallodynic Activity” (International Journal of Molecular Sciences, 2023)
